From ChEMBL document CHEMBL1201862, “PubChem BioAssay data set” (2004)
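Test compounds were applied to cells in 96-well plates for 48 hours at 5 doses. GI50 = concentration required for 50% inhibition of growth.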 Activity calls are given as the source filed them. Cut-off read from the data, not from the text of the source: active = GI50 up to about 1.1 µM and inactive = higher.

Tests used:
Test in all cases: NCI-60 cell line screen, 48 h
[1] = system: NCI-H460
[2] = system: MDA-MB-231
[3] = system: CAKI-1
[4] = system: SK-MEL-28
[5] = system: MOLT-4
[6] = system: MDA-N
[7] = system: IGROV-1
[8] = system: MCF7
[9] = system: HCC 2998
[10] = system: Hs-578T
[11] = system: SK-MEL-2
[12] = system: SNB-19
[13] = system: SR
[14] = system: HL-60
[15] = system: OVCAR-5
[16] = system: T47D
[17] = system: SK-OV-3
[18] = system: MDA-MB-435
[19] = system: SF-268
[20] = system: HOP-92

Row | Structure (SMILES) | GI50 [1] | GI50 [2] | GI50 [3] | GI50 [4] | GI50 [5] | GI50 [6] | GI50 [7] | GI50 [8] | GI50 [9] | GI50 [10] | GI50 [11] | GI50 [12] | GI50 [13] | GI50 [14] | GI50 [15] | GI50 [16] | GI50 [17] | GI50 [18] | GI50 [19] | GI50 [20]
1 | COC1CC(O[C@H]2CC[C@@]3(C)[C@@H](CC[C@]4(O)[C@@H]3CC[C@]3(C)[C@@H](C(C)=O)[C@H](OC(=O)CC(C)C)[C@@H](OC(=O)c5ccccc5)[C@@]34O)C2)OC(C)C1OC1CC(OC)C(OC2OC(C)C(O)C(OC)C2O)C(C)O1 (stereo not given in full) | 9.53 µM (inactive) | 18.4 µM (inactive) | 17.7 µM (inactive) | > 25 µM (inactive) | 7.08 µM (inactive) | > 25 µM (inactive) | 11.6 µM (inactive) | 11.4 µM (inactive) | 9.2 µM (inactive) | 8.09 µM (inactive) | > 25 µM (inactive) | > 25 µM (inactive) | 11.3 µM (inactive) | 7.19 µM (inactive) | > 25 µM (inactive) | 8 µM (inactive) | > 25 µM (inactive) | 12.2 µM (inactive) | > 25 µM (inactive) | 6.55 µM (inactive)
2 | CCC(=O)COc1ccc(NC(NC(=O)C(C(F)(F)F)C(F)(F)F)(C(F)(F)F)C(F)(F)F)cc1 | 77.4 µM (inactive) | 26.5 µM (inactive) | 36.1 µM (inactive) | 59.4 µM (inactive) | 14.3 µM (inactive) | 28.3 µM (inactive) | 19.4 µM (inactive) | 27.2 µM (inactive) | > 100 µM (inactive) | 31 µM (inactive) | 30.3 µM (inactive) | 46.9 µM (inactive) | 12.2 µM (inactive) | 22.2 µM (inactive) | 46.8 µM (inactive) | 20.6 µM (inactive) | 55.6 µM (inactive) | 42.7 µM (inactive) | 27.9 µM (inactive) | 39.1 µM (inactive)
3 | Cc1cc(O)c2c(c1)C(=O)C=C(Br)C2=O | 19.9 µM (inactive) | 16.9 µM (inactive) | 12.5 µM (inactive) | 15.4 µM (inactive) | 0.52 µM (active) | 15.3 µM (inactive) | > 43.7 µM (inactive) | 7.82 µM (inactive) | > 43.7 µM (inactive) | 13 µM (inactive) | 17.1 µM (inactive) | > 65.8 µM (inactive) | 1.3 µM (inactive) | 0.724 µM (active) | 16.1 µM (inactive) | 5.68 µM (inactive) | > 100 µM (inactive) | 14.5 µM (inactive) | 30.5 µM (inactive) | 13.8 µM (inactive)
